We go through 1 compound from patent US12178825B2, “Method and compositions for forming a copper-containing complex and uses thereof” (COLD SPRING HARBOR LABORATORY, priority 2017, dated 2024).

Data set [1] addresses T1, PTP1B1-405 (Homo sapiens, UniProt P18031).
T1 construct: PTP1B1-405 (the long form of PTP1B which contains the extended C-terminal segment); made in house; host or cells: Escherichia coli BL21 (DE3)-RIL
T1 sequence (P18031 1-405): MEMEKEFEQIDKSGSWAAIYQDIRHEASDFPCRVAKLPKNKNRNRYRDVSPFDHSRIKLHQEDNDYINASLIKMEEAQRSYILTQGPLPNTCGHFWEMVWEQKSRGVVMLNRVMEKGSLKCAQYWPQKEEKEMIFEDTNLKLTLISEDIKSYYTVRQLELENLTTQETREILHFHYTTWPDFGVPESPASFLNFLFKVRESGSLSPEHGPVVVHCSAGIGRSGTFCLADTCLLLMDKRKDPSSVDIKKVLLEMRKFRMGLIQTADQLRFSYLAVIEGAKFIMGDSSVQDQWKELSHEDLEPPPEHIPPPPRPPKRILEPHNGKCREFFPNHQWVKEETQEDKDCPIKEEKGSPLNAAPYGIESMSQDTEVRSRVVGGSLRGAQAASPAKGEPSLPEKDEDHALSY
Kind of data set: PTP1B phosphatase activity assay, DiFMUP substrate, long form. The format is biochemical. The protocol:
All common reagents were obtained from Thermo Fisher Scientific (Waltham, MA) or Sigma-Aldrich (St. Louis, MO). Difluoro-4-methylumbelliferyl phosphate (DiFMUP) was obtained from Invitrogen (cat #D22065). Solid black 384-well plates (cat #3573) for phosphatase assays were from Corning Incorporated (Corning, NY).
Wild-type PTP1B containing a His-tag was expressed in Escherichia coli BL21 (DE3)-RIL using LB. Cells were resuspended in lysis buffer (50 mM Hepes pH 7.2, 150 mM NaCl, 10 mM imidazole, 2 mM TCEP) with cOmplete EDTA-free Protease Inhibitor Cocktail (Roche), and then lysed using a sonicator at 4° C. Lysates were clarified by centrifugation. Initial protein purification was by gravity flow, nickel column chromatography. Protein was used immediately or stored at −80° C. in 50 mM HEPES pH 7.4, 100 mM NaCl, 2 mM dithiothreitol and 25% glycerol.

Data set [2] is described as follows: ESI-MS analysis of complex formation with zinc salts. The format is binding. The following applies: ZnSO4 or Zn(NO3)2, ESI-MS. How it is done:
Eight equivalents of M(NO3)2·xH2O or MSO4·xH2O (M=Cu, Zn) were reacted with 1 eq. of DPM-1001 (1 mM in H2O). The reaction solutions were stirred at RT, 40° C. and 80° C. for 2 h. Mass spectra were recorded on a Bruker Esquire 6000 HCT quadrupole ion trap instrument (Bruker Daltonik GmbH, Leipzig, Germany), equipped with an electrospray ionization (ESI) source. Generation of the molecular formula of the DPM-1001/Cu(II) species and the comparison between the theoretical (simulated) and the measured isotopic patterns was performed using the DataAnalysis 4.0 software (Bruker).

Data set [3] can be described thus: Body weight in diet-induced obesity. The format is in vivo, C57Bl6/J mice. The protocol: All protocols were approved by the Institutional Animal Use and Care Committee of Cold Spring Harbor laboratory. 10 week-old male mice fed chow diet or high-fat diet (D12492) were acclimatized for 10 days under standard conditions before experiments. Mice were injected intraperitoneally (i.p.) once daily with vehicle, 5 mg/kg of DPM-1001 intraperitoneally or orally for 50 days. Mice were euthanized after 6 h of fasting, and serum samples were collected to measure the metabolic parameters and tissue samples were collected for studying changes in signaling.

Data set [4] concerns TX mice. The data set can be described thus: Liver histology. The format is in vivo, mouse. An excerpt: Liver tissues from wild-type and TX mice from untreated and DPM-1001-treated mice were sectioned and stained with H&E or rhodanine. Whole-slide, digitized images of H&E-stained tissue were captured using the Aperio ScanScope XT automated scanning system (Vista, CA). Image J software was used to quantitate rhodanine staining.

Data set [5] relates to triple-negative breast cancer (TNBC) cell lines. Kind of data set: MTT cell survival, triple-negative breast cancer cell lines. It counts as cell-based. The protocol: (§1) The MTT assay was used to evaluate cell survival in the absence and presence of different compounds. The thiazolyl blue tetrazolium bromide (MTT) was dissolved in phosphate buffered saline (PBS) at a concentration of 5 mg/ml, filtered, and stored at 4° C. About 10,000 cells were seeded into a 96-well plate and cultured in growth medium containing serum. After 24 hours, cells were treated with the indicated concentrations of DPM-1001 or DPM-1003 (0-100 uM) for 2 hrs. Following which 20 μl MTT was added into each well. An ELISA plate reader (Biotek, Winooski, Vermont, USA) was used to measure the optical density at 490 nm.

The test system of data set [6] is MDA-MB-231 and SUM159. The data set can be described thus: Immunoblot of phospho-Erk. It counts as cell-based. The note with it: DPM-1001 1-2 μM. The text has this: Equal quantities of lysates were isolated from indicated cell lines and then resolved by SDS-PAGE and immunoblotted with one of the following primary antibodies: mouse anti-MEK1/2, rabbit anti-p-PAK1, rabbit anti-PAK1, rabbit anti-ERK1/2, rabbit anti-phospho(Ser 217/221)-MEK1/2, rabbit anti-phospho(Thr 202/Tyr 204)-ERK1/2, rabbit anti-phospho (Ser 338)-c-RAF, rabbit anti-RAF, rabbit anti-phospho (Ser 112)-BAD and rabbit anti-BAD (Cell Signaling Technology), mouse anti-β-actin (Sigma), followed by detection with one of the following horseradish peroxidase-conjugated secondary antibodies: goat anti-rabbit IgG, goat anti-mouse IgG (Invitrogen), mouse anti-rabbit light-chain-specific IgG (Jackson ImmunoResearch Laboratories) using enhanced chemiluminescence (ECL; GE Healthcare) or SuperSignal West Femto Chemiluminescent substrate (Pierce) detection reagents.

Data set [7] relates to AGS cells. The data set can be described thus: Cell survival. The format is cell-based. How it is done: as §1
Data set [8] has as its system KATOIII cells. Kind of data set: Cell survival. It counts as cell-based. How it is done: as §1
Data set [9] relates to MDA-MB-468 cells. Kind of data set: Cell survival. It counts as cell-based. How it is done: as §1
The subject of data set [10] is N87. Kind of data set: Cell survival. It counts as cell-based. How it is done:
as §1

Data set [11] relates to NIH 3T3 cells. Kind of data set: Cell survival. The format is cell-based. How it is done:
as §1

Data set [12] has as its system SNU116 cells. The data set can be described thus: Cell survival. It counts as cell-based. How it is done: as §1
Data set [13] relates to SNU1. Kind of data set: Cell survival. It counts as cell-based. The protocol: as §1
The subject of data set [14] is SNU5 cells. Kind of data set: Cell survival. It counts as cell-based. The protocol:
as §1

What is called pIC50 is the negative decadic logarithm of the IC50, by convention in mol/L.

pIC50: −log10 of the molar value. “Also recorded” adds a separate entry of the source. Where two headings read alike, the source gives them in different places.

Take `COC(=O)CCC(C)C1CCC2C3C(O)CC4CC(NCCCCNCc5ccccn5)CCC4(C)C3CCC12C` (stereo not shown) [DPM-1001]: the negative-log IC50 (pIC50) was 7.00 in data set [1] (after a 30 minute pre-incubation, read-out: IC50 for PTP1B1-405); 7.00 in data set [1] (compound pre-incubated with PTP1B, read-out: IC50, inhibition of PTP1B); 7.00 in data set [1] (long form PTP1B1-405, DiFMUP substrate (FIG. 1), read-out: IC50, inhibition of the phosphatase); 6.22 in data set [1] (no pre-incubation, read-out: IC50 for PTP1B1-405). Also, the “reversibility of inhibition of PTP1B1-405” value in data set [1] (enzyme-inhibitor complex diluted, activity recovery monitored) was “remained inactive over an extended period of time”. The “time dependence of inhibition of PTP1B1-405” value was “no obvious time dependence of inhibition” in data set [1] (presence of catalase) and “time-dependent increase in potency” in [1] (presence or absence of PRX1). Besides, in [2], the “complexation with Zn(II)” value is given as “no complexation”. For the same compound, the “weight loss in chow fed mice” value in data set [3] (chow diet) is “without weight loss; also recorded: no weight loss”. The “onset of weight loss” value in data set [3] (high fat diet-fed mice) was “started losing weight within five days of treatment”. Also, the liver morphology result is “prevents the enlarged hepatocytes with irregular shape and arrangement large cytoplasmic lipid droplets in liver; also recorded: appeared similar to those from wild-type mice with normal hepatocyte size, shape and arrangement” in data set [4] (TX mice); “no obvious abnormalities were detected” in data set [4] (wild-type mice). The “survival of triple-negative breast cancer cells” value in data set [5] is reported as “inhibited survival; also recorded: potently inhibits survival”. Moreover, in [6], the “levels of phospho-Erk” value is “high levels of reduction; also recorded: greater than that seen with 50 μM of bathocuproine disulfonate or 25 μM of TTM”. In addition, the “survival of AGS cells” value in data set [7] was “inhibited survival; also recorded: inhibitory effect”. In [8], the “survival of KATOIII cells” value is “inhibited survival; also recorded: inhibitory effect”. Moreover, the “survival of MDA-MB-468 cells” value in [9] is given as “inhibitory effect”. The “survival of N87 cells” value in [10] is on record as “inhibited survival; also recorded: inhibitory effect”. Also, the “survival of NIH 3T3 cells” value in data set [11] is listed as “no effect on survival”. Further, in data set [12], the “survival of SNU116 cells” value is recorded as “inhibited survival; also recorded: inhibitory effect”. For the same compound, in [13], the “survival of SNU1 cells” value is on record as “inhibited survival”. Further, in data set [14], the “survival of SNU5 cells” value is on record as “inhibited survival; also recorded: inhibitory effect”.
